Laboratory results from patent US20170008888A1 (KYORIN PHARMACEUTICAL CO., LTD., priority 2014, published 2017).

Legend:
[1] = target: T1, ERK5 (Homo sapiens, UniProt Q13164); test: Probe-based (AX9989 acyl phosphate ATP probe) kinase profiling in Jurkat lysate: ERK5; assay type: binding; conditions: for IC50: Jurkat lysate; for inhibition at 10 µM: screening concentration 10 μM; for inhibition at 10 µM / inhibition at 1 µM: read-out: ERK5 Inhibition % at indicated screening concentration; for inhibition at 1 µM: screening concentration 1 μM; for inhibition at 0.1 µM: screening concentration 0.1 μM, read-out: Kinase inhibition % at indicated screening concentration: ERK5
T1 construct: screened for activity against several kinases in Jurkat cells; endogenous in cells; host or cells: Jurkat cell lysate
Summary of the method: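 Gel-filtered Jurkat lysate (5 mg/ml, 20 mM MnCl2) preincubated 15 min at room temperature with compound, then labelled with 5 μM AX9989 acyl phosphate ATP probe. Probe-labelled ERK5 active-site peptides quantified by LC/MS after trypsin digestion and streptavidin capture; IC50 calculated from percent inhibition at the screening concentration.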

[2] = target: T2, JAK1 (Homo sapiens, UniProt P23458); test: Probe-based (AX9989) kinase profiling in Jurkat lysate: JAK1; assay type: binding; conditions: for inhibition at 10 µM: screening concentration 10 μM; for inhibition at 10 µM / inhibition at 1 µM: read-out: JAK1 Inhibition % at indicated screening concentration; for inhibition at 1 µM: screening concentration 1 μM; for inhibition at 0.1 µM: screening concentration 0.1 μM, read-out: Kinase inhibition % at indicated screening concentration: JAK1
T2 construct: screened for activity against several kinases in Jurkat cells; endogenous in cells; host or cells: Jurkat cell lysate
Summary of the method: (§1)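 Compounds were pre-incubated for 15 min at room temperature with gel-filtered Jurkat cell lysate supplemented with 20 mM MnCl2, after which the acyl phosphate ATP probe AX9989 was added at 5 μM final. Labeled active-site peptides were enriched after tryptic digestion and measured by LC/MS, with percent inhibition taken relative to samples without compound.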

[3] = target: T3, ACK (Homo sapiens, UniProt Q07912); test: Probe-based (AX9989) kinase profiling in Jurkat lysate: ACK; assay type: binding; conditions: for inhibition at 10 µM: screening concentration 10 μM; for inhibition at 10 µM / inhibition at 1 µM: read-out: ACK Inhibition % at indicated screening concentration; for inhibition at 1 µM: screening concentration 1 μM; for inhibition at 0.1 µM: screening concentration 0.1 μM, read-out: Kinase inhibition % at indicated screening concentration: ACK
T3 construct: screened for activity against several kinases in Jurkat cells; endogenous in cells; host or cells: Jurkat cell lysate
Summary of the method: as §1

[4] = system: ABL or ARG; test: Probe-based (AX9989) kinase profiling in Jurkat lysate: ABL or ARG; assay type: binding; conditions: for Kinase inhibition % at indicated screening concentration: ABL or ARG: screening concentration 0.1 μM
Summary of the method: as §1

[5] = target: T4, recombinant human ERK5 catalytic domain (Homo sapiens, UniProt Q13164); test: Recombinant human ERK5 radiometric (HotSpot) assay; assay type: biochemical; conditions: 10 μM ATP, 20 μM myelin basic protein substrate; read-out: rhERK5 IC50
T4 construct: Recombinant human ERK5 catalytic domain radiometric assays; purchased Reaction Biology, Corp (Malvern, Pa.), which ran the assay as a service
Method: In this example, potency of the compounds in recombinant human ERK5 was assayed.
Recombinant human ERK5 catalytic domain radiometric assays were performed by Reaction Biology, Corp (Malvern, Pa.). The HotSpot radiometric assay is based on conventional filter-binding assays (Nature Biotechnology (2011) 29: 1039-1045). Compounds were tested at 20 μM down by ⅓ in a 10 point serial dilution series. Briefly, [γ-33P]-ATP was used as the tracer along with 10 μM cold ATP to label ERK5 in the presence of 20 μM myelin basic protein substrate.

[6] = system: human PBMCs; test: Human PBMC TNF-α response to endotoxin (ELISA); assay type: cell-based; conditions: 0.1 μg/ml LPS 16 h, read-out: EC50 for the inhibition of the human PBMC TNF-α response to endotoxin, ave. ± S.D.
Summary of the method: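 PBMCs at 2e6 cells/ml in RPMI 1640 with 10% charcoal-dextran-treated FBS were pre-treated 1 h at 37 °C with compound (4-point 1:5 dilution from 10 μM). Stimulation with 0.1 μg/ml E. coli 0111:B4 LPS for 16 h; TNF-α measured by ELISA (A450) in 25-fold diluted supernatant.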

[7] = target: T5, BRD4 bromodomain domain I [BRD4(1)] (Homo sapiens, UniProt O60885); test: BRD4 bromodomain domain 1 inhibition assay (TR-FRET); assay type: binding; conditions: for inhibition at 10 µM: screening concentration 10 μM
T5 construct: BRD4 bromodomain domain I [BRD4(1)]; purchased Cayman Chemicals
Summary of the method: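 0.5% DMSO, in triplicate, using Cayman BRD4(1) TR-FRET protocol with slight modification. 670/620 nm ratio normalized to 10 μM JQ1, with DMSO control set as 0% inhibition.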

[8] = calculated from percent inhibition and screening concentration, AX9989 probe
[9] = calculated from percent inhibition of AX9989 labeling and the screening concentration

T4 sequence (Q13164 55-347 limits assumed): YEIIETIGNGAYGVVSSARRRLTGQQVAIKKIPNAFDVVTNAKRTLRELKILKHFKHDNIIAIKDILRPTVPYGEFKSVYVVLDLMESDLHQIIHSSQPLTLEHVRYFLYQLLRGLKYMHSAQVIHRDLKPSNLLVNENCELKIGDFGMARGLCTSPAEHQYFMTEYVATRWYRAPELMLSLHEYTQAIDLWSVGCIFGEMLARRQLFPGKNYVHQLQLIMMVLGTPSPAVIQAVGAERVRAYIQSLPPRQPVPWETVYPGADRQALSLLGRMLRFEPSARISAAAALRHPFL
T2 sequence (P23458 whole entry): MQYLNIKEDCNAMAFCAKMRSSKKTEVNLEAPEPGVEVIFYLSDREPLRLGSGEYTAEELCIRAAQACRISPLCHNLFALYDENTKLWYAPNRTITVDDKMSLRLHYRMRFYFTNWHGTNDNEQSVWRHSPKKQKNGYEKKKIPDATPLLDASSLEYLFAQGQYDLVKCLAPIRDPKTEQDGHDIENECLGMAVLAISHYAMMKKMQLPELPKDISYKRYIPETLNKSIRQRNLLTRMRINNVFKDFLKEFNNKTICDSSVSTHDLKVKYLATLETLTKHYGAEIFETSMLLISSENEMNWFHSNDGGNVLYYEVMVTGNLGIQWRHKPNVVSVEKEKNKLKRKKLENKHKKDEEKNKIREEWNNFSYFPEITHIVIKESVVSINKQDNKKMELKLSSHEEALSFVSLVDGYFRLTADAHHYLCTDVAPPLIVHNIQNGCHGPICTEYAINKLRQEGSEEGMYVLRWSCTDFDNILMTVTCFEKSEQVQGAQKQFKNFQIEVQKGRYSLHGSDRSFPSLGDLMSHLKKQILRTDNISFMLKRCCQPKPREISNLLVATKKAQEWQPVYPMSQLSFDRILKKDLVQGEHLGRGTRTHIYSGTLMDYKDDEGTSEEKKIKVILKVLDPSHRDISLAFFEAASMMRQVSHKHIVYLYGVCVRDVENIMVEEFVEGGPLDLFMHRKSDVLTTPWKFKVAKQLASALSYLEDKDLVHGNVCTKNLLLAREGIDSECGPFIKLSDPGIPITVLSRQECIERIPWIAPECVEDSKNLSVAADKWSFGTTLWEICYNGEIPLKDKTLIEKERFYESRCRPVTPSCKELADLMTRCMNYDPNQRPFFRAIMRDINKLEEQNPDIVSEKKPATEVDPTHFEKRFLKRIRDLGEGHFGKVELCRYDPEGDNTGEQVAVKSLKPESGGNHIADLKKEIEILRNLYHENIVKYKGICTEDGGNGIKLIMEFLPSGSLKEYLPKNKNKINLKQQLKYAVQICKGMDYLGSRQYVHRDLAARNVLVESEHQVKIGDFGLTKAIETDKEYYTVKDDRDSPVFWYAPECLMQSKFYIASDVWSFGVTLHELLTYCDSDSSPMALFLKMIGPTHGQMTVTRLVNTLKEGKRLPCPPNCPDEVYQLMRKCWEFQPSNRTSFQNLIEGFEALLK
T3 sequence (Q07912 whole entry): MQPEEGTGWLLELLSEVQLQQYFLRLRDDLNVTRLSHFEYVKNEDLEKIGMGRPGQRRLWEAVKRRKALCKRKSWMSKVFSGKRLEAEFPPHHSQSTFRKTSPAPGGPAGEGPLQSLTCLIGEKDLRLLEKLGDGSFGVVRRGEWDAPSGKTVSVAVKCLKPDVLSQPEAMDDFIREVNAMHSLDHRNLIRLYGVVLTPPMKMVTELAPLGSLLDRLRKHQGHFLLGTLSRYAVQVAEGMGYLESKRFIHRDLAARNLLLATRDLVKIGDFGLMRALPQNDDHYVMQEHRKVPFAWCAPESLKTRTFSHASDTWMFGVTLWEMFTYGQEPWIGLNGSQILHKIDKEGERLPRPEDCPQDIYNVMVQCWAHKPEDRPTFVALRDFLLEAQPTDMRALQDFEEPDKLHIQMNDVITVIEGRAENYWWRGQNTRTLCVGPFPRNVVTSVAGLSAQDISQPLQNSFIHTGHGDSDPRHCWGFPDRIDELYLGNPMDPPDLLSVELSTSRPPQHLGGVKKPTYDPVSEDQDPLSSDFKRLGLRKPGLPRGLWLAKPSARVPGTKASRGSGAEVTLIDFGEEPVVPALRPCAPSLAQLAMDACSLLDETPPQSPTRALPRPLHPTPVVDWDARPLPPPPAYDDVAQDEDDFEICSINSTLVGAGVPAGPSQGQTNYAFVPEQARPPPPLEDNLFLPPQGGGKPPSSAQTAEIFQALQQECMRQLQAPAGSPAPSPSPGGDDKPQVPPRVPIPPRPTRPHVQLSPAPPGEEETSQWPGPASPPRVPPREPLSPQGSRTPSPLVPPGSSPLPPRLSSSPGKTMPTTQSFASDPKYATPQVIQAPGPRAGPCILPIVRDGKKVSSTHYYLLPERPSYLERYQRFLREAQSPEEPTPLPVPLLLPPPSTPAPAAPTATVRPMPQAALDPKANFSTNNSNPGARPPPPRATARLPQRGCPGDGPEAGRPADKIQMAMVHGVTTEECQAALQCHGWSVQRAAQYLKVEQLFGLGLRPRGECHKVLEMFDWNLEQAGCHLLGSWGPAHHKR
T1 sequence (Q13164 whole entry): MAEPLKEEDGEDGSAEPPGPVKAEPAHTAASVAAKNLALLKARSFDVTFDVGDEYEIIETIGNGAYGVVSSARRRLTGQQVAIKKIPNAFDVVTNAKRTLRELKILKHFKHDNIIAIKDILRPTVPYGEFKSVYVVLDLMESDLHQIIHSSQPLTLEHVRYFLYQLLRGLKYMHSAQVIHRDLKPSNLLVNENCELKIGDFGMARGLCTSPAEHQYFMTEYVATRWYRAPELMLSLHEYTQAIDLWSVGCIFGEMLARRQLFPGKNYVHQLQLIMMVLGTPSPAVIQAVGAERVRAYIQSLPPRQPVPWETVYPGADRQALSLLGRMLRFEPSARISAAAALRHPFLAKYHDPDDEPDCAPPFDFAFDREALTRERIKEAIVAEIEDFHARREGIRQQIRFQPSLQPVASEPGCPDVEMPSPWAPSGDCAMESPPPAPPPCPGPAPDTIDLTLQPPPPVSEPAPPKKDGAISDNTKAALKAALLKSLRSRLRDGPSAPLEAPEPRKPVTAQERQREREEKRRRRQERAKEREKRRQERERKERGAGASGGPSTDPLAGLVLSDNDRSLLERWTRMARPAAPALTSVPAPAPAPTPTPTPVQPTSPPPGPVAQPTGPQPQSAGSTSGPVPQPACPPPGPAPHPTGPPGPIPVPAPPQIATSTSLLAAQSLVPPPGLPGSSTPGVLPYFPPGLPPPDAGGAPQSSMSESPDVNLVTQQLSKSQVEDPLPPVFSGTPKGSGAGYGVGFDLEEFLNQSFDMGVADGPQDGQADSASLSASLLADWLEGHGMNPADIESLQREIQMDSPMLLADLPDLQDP

SMILES: CN1C(=O)c2c(F)ccc(F)c2Oc2cc(N[C@H]3CC[C@H](O)CC3)ncc21 [Compound T97]
- IC50 [1, 8]: > 500 nM
- inhibition at 10 µM [1]: > 90%
- inhibition at 10 µM [2]: ≤ 35%
- inhibition at 10 µM [3]: ≤ 35%
- ABL or ARG Inhibition % at indicated screening concentration ([4]; screening concentration 10 μM): E (E is ≦35%)
- IC50 [5]: > 200 nM
- EC50 [6]: 430 ± 450 nM
- IC50 [7]: 2000 to 5000 nM

SMILES: CCOc1cc(C(=O)N2CCC(NC3CCN(C)CC3)C2)ccc1Nc1cc2c(cn1)N(C)C(=O)c1ccccc1N2C (centres unmarked) [Compound T42]
- IC50 [1, 8]: 50 to 100 nM
- inhibition at 1 µM [1]: > 90%
- inhibition at 1 µM [2]: ≤ 35%
- inhibition at 1 µM [3]: ≤ 35%
- ABL or ARG Inhibition % at indicated screening concentration ([4]; screening concentration 1 μM): E (E is ≦35%)
- IC50 [5]: 50 to 200 nM
- EC50 [6]: 680 ± 450 nM
- inhibition at 10 µM [7]: > 85%

SMILES: CCOc1cc(C(=O)N[C@H]2CC[C@H](O)CC2)ccc1Nc1cc2c(cn1)N(C)C(=O)c1ccccc1N2C [Compound T62]
- IC50 [1, 8]: 101 to 500 nM
- inhibition at 1 µM [1]: 75 to 90%
- inhibition at 1 µM [2]: ≤ 35%
- inhibition at 1 µM [3]: ≤ 35%
- ABL or ARG Inhibition % at indicated screening concentration ([4]; screening concentration 1 μM): E (E is ≦35%)
- IC50 [5]: > 200 nM
- EC50 [6]: 490 ± 100 nM
- inhibition at 10 µM [7]: 70 to 85%

SMILES: CC(C)Oc1cc(C(=O)N2CCC[C@H](O)C2)ccc1Nc1cc2c(cn1)N(C)C(=O)c1ccccc1N2C [Compound T48]
- IC50 [1, 8]: 101 to 500 nM
- inhibition at 10 µM [1]: > 90%
- inhibition at 10 µM [2]: ≤ 35%
- inhibition at 10 µM [3]: ≤ 35%
- ABL or ARG Inhibition % at indicated screening concentration ([4]; screening concentration 10 μM): E (E is ≦35%)
- IC50 [5]: 50 to 200 nM
- EC50 [6]: 740 nM
- inhibition at 10 µM [7]: 70 to 85%

SMILES: CCOc1cc(C(=O)N2CCC(NCCF)C2)ccc1Nc1cc2c(cn1)N(C)C(C(F)(F)F)c1ccccc1N2C (centres unmarked) [Compound T54]
- IC50 [1, 8]: > 500 nM
- inhibition at 10 µM [1]: 50 to 75%
- inhibition at 10 µM [2]: ≤ 35%
- inhibition at 10 µM [3]: ≤ 35%
- ABL or ARG Inhibition % at indicated screening concentration ([4]; screening concentration 10 μM): E (E is ≦35%)
- IC50 [5]: > 200 nM
- EC50 [6]: 7140 nM

SMILES: CCOc1cc(C(=O)N[C@H]2CC[C@@H](O)CC2)ccc1Nc1cc2c(cn1)N(C)C(=O)c1ccccc1N2C [Compound T63]
- IC50 [1, 8]: 101 to 500 nM
- inhibition at 1 µM [1]: 75 to 90%
- inhibition at 1 µM [2]: ≤ 35%
- inhibition at 1 µM [3]: ≤ 35%
- ABL or ARG Inhibition % at indicated screening concentration ([4]; screening concentration 1 μM): E (E is ≦35%)
- IC50 [5]: > 200 nM
- EC50 [6]: 750 nM

SMILES: CCOc1cc(C(=O)N2CCC(N3CCN(C)CC3)CC2)ccc1Nc1cc2c(cn1)N(C)C(C(F)(F)F)c1ccccc1N2C (centres unmarked) [Compound T47]
- IC50 [1, 8]: > 500 nM
- inhibition at 10 µM [1]: 50 to 75%
- inhibition at 10 µM [2]: ≤ 35%
- inhibition at 10 µM [3]: ≤ 35%
- ABL or ARG Inhibition % at indicated screening concentration ([4]; screening concentration 10 μM): E (E is ≦35%)
- IC50 [5]: > 200 nM
- EC50 [6]: 3970 nM

SMILES: CN1CCC(N2CCN(C(=O)c3ccc(Nc4cc5c(cn4)N(C)C(=O)c4ccccc4N5C)c(F)c3)CC2)CC1 [Compound T70]
- IC50 [1, 8]: ≤ 50 nM
- inhibition at 1 µM [1]: > 90%
- inhibition at 1 µM [2]: ≤ 35%
- inhibition at 1 µM [3]: ≤ 35%
- ABL or ARG Inhibition % at indicated screening concentration ([4]; screening concentration 1 μM): E (E is ≦35%)
- EC50 [6]: 2090 nM
- inhibition at 10 µM [7]: < 70%

SMILES: CCOc1cc(C(=O)NCCN(CC)CC)ccc1Nc1cc2c(cn1)N(C)C(=O)c1ccccc1N2C [Compound 103]
- IC50 [1, 9]: ≤ 50 nM
- inhibition at 0.1 µM [1]: > 90%
- inhibition at 0.1 µM [2]: ≤ 35%
- inhibition at 0.1 µM [3]: ≤ 35%
- Kinase inhibition % at indicated screening concentration: ABL or ARG [4]: E (E is ≦35%)
- EC50 [6]: 620 ± 40 nM
- inhibition at 10 µM [7]: 70 to 85%

SMILES: CCOc1cc(C(=O)NCCN(C(C)C)C(C)C)ccc1Nc1cc2c(cn1)N(C)C(=O)c1ccccc1N2C [Compound 55]
- IC50 [1, 9]: ≤ 50 nM
- inhibition at 0.1 µM [1]: 50 to 75%
- inhibition at 0.1 µM [2]: ≤ 35%
- inhibition at 0.1 µM [3]: ≤ 35%
- Kinase inhibition % at indicated screening concentration: ABL or ARG [4]: E (E is ≦35%)
- EC50 [6]: 1160 ± 450 nM
- inhibition at 10 µM [7]: 70 to 85%
